# Target: T1, recombinant human FAAH (rhFAAH) (Homo sapiens, UniProt O00519)
# T1 construct: purchased Cayman Chemical (Ann Arbor, MI, USA)
# T1 sequence (O00519 1-579): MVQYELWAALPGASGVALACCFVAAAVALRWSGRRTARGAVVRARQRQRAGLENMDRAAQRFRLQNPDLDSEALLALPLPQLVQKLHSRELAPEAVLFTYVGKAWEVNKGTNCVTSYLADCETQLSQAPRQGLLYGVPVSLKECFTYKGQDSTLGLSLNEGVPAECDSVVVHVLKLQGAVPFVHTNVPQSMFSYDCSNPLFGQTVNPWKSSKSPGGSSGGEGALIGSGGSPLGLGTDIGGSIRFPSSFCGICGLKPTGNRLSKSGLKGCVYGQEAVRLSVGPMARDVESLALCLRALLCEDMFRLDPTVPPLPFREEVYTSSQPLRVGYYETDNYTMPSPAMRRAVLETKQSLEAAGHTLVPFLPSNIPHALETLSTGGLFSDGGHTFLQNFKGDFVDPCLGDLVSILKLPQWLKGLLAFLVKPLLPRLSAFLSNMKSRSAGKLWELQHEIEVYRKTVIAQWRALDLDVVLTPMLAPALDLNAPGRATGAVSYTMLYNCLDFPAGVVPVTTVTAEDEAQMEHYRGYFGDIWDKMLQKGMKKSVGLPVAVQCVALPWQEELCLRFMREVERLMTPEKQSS
# Test: FAAH substrate evaluation (acid metabolite formation)
# Format: biochemical
# Conditions: observed rate constant for acid metabolite formation; 0.5 ng/μL rhFAAH, 1 μM test compound, room temperature, 0-60 minutes
# Procedure: Purified recombinant human FAAH (rhFAAH) was purchased from Cayman Chemical (Ann Arbor, MI, USA). The total volume for each incubation was 400 μL containing a final 0.5 ng/μL rhFAAH, 1 μM test compound, 1.25% ethanol or 1 μM PF-3845 (FAAH inhibitor), and 0.1% bovine serum albumin in Tris-EDTA buffer at pH 8.0). The positive control was LL-341001. The incubation was conducted at the room temperature. At 0, 5, 15, 30 and 60 minutes, an aliquot of 30 μL reaction mixtures was removed and mixed with 300 μL acetonitrile containing 5 ng/mL terfenadine and 10 ng/mL tolbutamide as internal standards to quench the reaction. The resulting mixture was centrifuged at 4000 rpm, 4° C. for 15 minutes, and 100 μL supernatant was ready for LC-MS/MS analysis to measure the formation of acid metabolite.
# Acquity Ultra Performance LC system from Waters was used for sample analysis. The chromatography was performed on a reverse phase Kinetex 2.6 μm C18 column, 2.1×30 mm, 100 Å. The mobile phase A comprised of 0.1% formic acid in water and mobile phase B comprised of 0.1% formic acid in acetonitrile with a 2-min run time at the flow rate of 0.8 mL/min for the acid metabolite from positive control or a 1.5 min run time at the flow rate of 0.9 mL/min for the acid metabolite of test compounds. The mass spectrometer (API-5500 and API Q Trap 4000 Applied Biosystems/MDS SCIEX Instruments, Framingham, MA, USA) was operated under ESI positive or negative ion MRM mode.
# The formation of acid metabolite was monitored and quantified using one calibration point of 1 μM. The observed rate constant (ke) for the acid metabolite formation was calculated by plotting the metabolite concentration versus time of incubation with the slope being ke and is shown in Table 1.
row,ke,Structure (SMILES)
1,A (ke is more than or equal to 0.1),"CC(C)c1cc(Cc2c(Cl)cc(OCC(=O)N[C@@H]3C[C@@H]3F)cc2Cl)ccc1O [Compound 111, 2-(3,5-dichloro-4-(4-hydroxy-3-isopropylbenzyl)phenoxy)-N-((1R,2S)-2-fluorocyclopropyl)acetamide]"
2,B (ke is less than 0.1 and more than 0),"CCCN(C)C(=O)COc1cc(Cl)c(Cc2ccc(O)c(C(C)C)c2)c(Cl)c1 [Compound 129, 2-(3,5-dichloro-4-(4-hydroxy-3-isopropylbenzyl)phenoxy)-N-methyl-N-propylacetamide]"
3,C (ke is 0),"CC(C)c1cc(Cc2c(Cl)cc(OCC(=O)NC3CCCCC3)cc2Cl)ccc1O [Compound 105, N-cyclohexyl-2-(3,5-dichloro-4-(4-hydroxy-3-isopropylbenzyl)phenoxy)acetamide]"
4,B (ke is less than 0.1 and more than 0),"CC(C)c1cc(Cc2c(Cl)cc(OCC(=O)N(C)CCF)cc2Cl)ccc1O [Compound 125, 2-(3,5-dichloro-4-(4-hydroxy-3-isopropylbenzyl)phenoxy)-N-(2-fluoroethyl)-N-methylacetamide]"
5,A (ke is more than or equal to 0.1),"CC(C)c1cc(Cc2c(Cl)cc(OCC(=O)Nc3ccncc3)cc2Cl)ccc1O [Compound 115, 2-(3,5-dichloro-4-(4-hydroxy-3-isopropylbenzyl)phenoxy)-N-(pyridin-4-yl)acetamide]"
6,C (ke is 0),"CC(C)CNC(=O)COc1cc(Cl)c(Cc2ccc(O)c(C(C)C)c2)c(Cl)c1 [Compound 121, 2-(3,5-dichloro-4-(4-hydroxy-3-isopropylbenzyl)phenoxy)-N-isobutylacetamide]"
7,B (ke is less than 0.1 and more than 0),"C=CCN(C)C(=O)COc1cc(Cl)c(Cc2ccc(O)c(C(C)C)c2)c(Cl)c1 [Compound 128, N-allyl-2-(3,5-dichloro-4-(4-hydroxy-3-isopropylbenzyl)phenoxy)-N-methylacetamide]"
8,B (ke is less than 0.1 and more than 0),"CC#CCNC(=O)COc1cc(Cl)c(Cc2ccc(O)c(C(C)C)c2)c(Cl)c1 [Compound 106, N-(but-2-yn-1-yl)-2-(3,5-dichloro-4-(4-hydroxy-3-isopropylbenzyl)phenoxy)acetamide]"

# Second part, the compound before the results:
row,Structure (SMILES),ke
1,CC(C)c1c(O)ccc(Cc2c(Cl)cc(OCC(=O)N(C)C)c(F)c2Cl)c1F [Compound 40],B (ke is less than 0.1 and more than 0)
2,CONC(=O)COc1cc(Cl)c(Cc2ccc(O)c(C(C)C)c2)c(Cl)c1 [Compound 28],A (ke is more than or equal to 0.1)
3,CC(C)c1c(O)ccc(Cc2c(Cl)cc(OCC(=O)NN(C)C)cc2Cl)c1F [Compound 45],A (ke is more than or equal to 0.1)
4,CC(C)c1cc(Cc2c(Cl)cc(OCC(=O)NCCN)cc2Cl)ccc1O [Compound 12],B (ke is less than 0.1 and more than 0)
5,CC(C)c1cc(Cc2c(Cl)cc(OCC(=O)Nc3cccc(F)c3)cc2Cl)ccc1O [Compound 25],A (ke is more than or equal to 0.1)
6,CC(C)c1cc(Cc2c(Cl)cc(OCC(=O)NC3CC3)cc2Cl)ccc1O [Compound 17],A (ke is more than or equal to 0.1)
7,CC(C)c1cc(Cc2c(Cl)cc(OCC(=O)Nc3ccccc3O)cc2Cl)ccc1O [Compound 20],A (ke is more than or equal to 0.1)
8,CC(C)c1cc(Cc2c(Cl)cc(OCC(=O)NCCS(C)(=O)=O)cc2Cl)ccc1O [Compound 30],A (ke is more than or equal to 0.1)
9,CNC(=O)COc1cc(F)c(Cc2ccc(O)c(C(C)C)c2)c(Cl)c1F [Compound 42],A (ke is more than or equal to 0.1)
10,CC(C)c1cc(Cc2c(Cl)cc(OCC(=O)NC[C@@H](C)O)cc2Cl)ccc1O [Compound 7],B (ke is less than 0.1 and more than 0)
11,CC(C)c1cc(Cc2c(Cl)cc(OCC(=O)NCC#N)cc2Cl)ccc1O [Compound 29],A (ke is more than or equal to 0.1)
12,CC(C)c1cc(Cc2c(Cl)cc(OCC(=O)NCC(F)(F)F)cc2Cl)ccc1O [Compound 16],A (ke is more than or equal to 0.1)
13,CCN(C)C(=O)COc1cc(Cl)c(Cc2ccc(O)c(C(C)C)c2F)c(Cl)c1 [Compound 34],C (ke is 0)

# — patent US12637413B2, “Fatty acid amide hydrolase (FAAH) cleavable prodrugs of thyromimetics and combination with peripherally restricted FAAH inhibitors” (Autobahn Therapeutics, Inc., priority 2021, dated 2026)
